This is an account of results in patent US20260232662A1, “MIR-124 INDUCER, AND PREPARATION METHOD THEREFOR AND USE THEREOF” (NANJING SYNNOCARE PHARMACEUTICAL TECHNOLOGY CO., LTD., priority 2023, published 2026).

Data set [1] concerns miR-124. Briefly: Induction of miR-124 expression in PBMC cells (qPCR). Conditions: Homo sapiens, 72 h, 0.1 μM compound, human PBMCs stimulated with PMA/ionomycin, miR-191 reference gene, read-out: miR-124 expression, Fold change vs DMSO. The data set is classed as cell-based. A digest of the protocol: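 Human PBMCs (3.0*10^6 cells/well) were stimulated with PMA 10 ng/mL plus ionomycin 200 ng/mL for 48 h, then given compound at 0.1 μM final for 72 h. miR-124 was measured by RT-qPCR against miR-191 as reference gene. Expression is relative to DMSO control.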

A short description of data set [2]: In vivo pharmacokinetic evaluation in mice. Conditions: mouse; male ICR mice, po, 10 mg/kg, plasma. Here is the method: The compound was administered orally (p.o.) at a dose of 10 mg/kg. The test formulation was prepared at a final concentration of 0.4 mg/mL in 5% DMSO+45% PEG400+50% aqueous solution or suspension. Male ICR mice (9 per group) were sampled at three discontinuous time points (n=3 mice/time point). Approximately 80 μL of blood was collected via orbital or cardiac puncture at 5 min, 15 min, 30 min, 1 h, 2 h, 4 h, 8 h, and 24 h post-dose. All whole blood samples were collected in EDTA K2-containing tubes. After centrifugation at 4° C. (4000 rpm, 10 min), plasma was collected and stored below −40° C. for subsequent analysis. Compound concentrations in plasma were determined by liquid chromatography-tandem mass spectrometry (LC-MS/MS), and pharmacokinetic parameters were derived from the plasma concentration-time curves.

Consider `FC(F)(F)Oc1ccc(Nc2nc3c(Cl)cccc3n3ccnc23)cc1` [Compound 2], for which, in data set [1], the fold induction at 0.1 µM was found to be 16.5. Also, in data set [2], the AUC(0-t) is 933 ng·h/mL, the Cmax amounted to 207 ng/mL, the time of peak concentration (Tmax) stood at 4 h and the half-life is 3.45 h.
In the same order, the values of `Fc1cc(Nc2nc3c(Cl)cccc3n3ccnc23)ccc1OC(F)(F)F` [Compound 18] are 17.6, 1840 ng·h/mL, 365 ng/mL, 2 h and 3.78 h.
As for `FC(F)(F)c1ccc(NC2=Nc3c(Cl)cccc3N3CCN=C23)cc1Cl` [Compound 67], the fold induction at 0.1 µM in data set [1] is 28.8. In data set [2], the AUC(0-t) worked out at 2030 ng·h/mL, the concentration peaked (Cmax) at 403 ng/mL, the Tmax was 4 h and the half-life is 3.29 h.
For `FC(F)(F)c1ccc(NC2=Nc3c(Cl)cccc3N3CCN=C23)cc1` [Compound 68] the same measures were 29.5, 879 ng·h/mL, 243 ng/mL, 0.5 h and 2.17 h.
In the same order, the values of `FC1(F)Oc2ccc(NC3=Nc4c(Cl)cccc4N4CCN=C34)cc2O1` [Compound 70] are 16.4, 1430 ng·h/mL, 357 ng/mL, 0.5 h and 2.32 h.
As for `Fc1cc(NC2=Nc3c(Cl)cccc3N3CCN=C23)ccc1OC(F)(F)F` [Compound 71], the fold induction at 0.1 µM in data set [1] came to 25.3. Moreover, in data set [2], the AUC(0-t) was determined as 1370 ng·h/mL, the Cmax amounted to 274 ng/mL, the Tmax came to 4 h and the half-life is 3.41 h.
In the same order, the values of `FC(F)(F)Oc1ccc(Nc2nc3cccc(Cl)c3n3ccnc23)cc1` [Compound B1, 9-chloro-N-(4-(trifluoromethoxy)-phenyl)imidazolo [1,2-a]quinoxalin-4-amine] are 43.8, 3590 ng·h/mL, 450 ng/mL, 1 h and 2.58 h.
In the same order, the values of `FC(F)(F)Oc1ccc(Nc2nc3ccc(Cl)cc3n3ccnc23)cc1` [Compound B4, 8-chloro-N-(4-(trifluoromethoxy)phenyl)imidazolo [1,2-a]quinoxalin-4-amine] are 33.1, 2850 ng·h/mL, 271 ng/mL, 2 h and 3.26 h.
Consider `FC(F)(F)Oc1ccc(NC2=Nc3cccc(Cl)c3N3CCN=C23)cc1Cl` [Compound B120, 9-chloro-N-(3-chloro-4-(trifluoromethoxy)phenyl)-1,2-dihydroimidazo[1,2-a] quinoxalin-4-amine], for which, in data set [1], the fold induction at 0.1 µM was 22.6.
Still for that read-out and setting: the figure for `Fc1cc(NC2=Nc3cccc(Cl)c3N3CCN=C23)ccc1C(F)(F)F` [Compound B122, 9-chloro-N-(3-fluoro-4-(trifluoromethyl)phenyl)-1,2-dihydroimidazo[1,2-a] quinoxalin-4-amine] is 27.3.
Still for that read-out and setting: to `FC(F)(F)c1ccc(NC2=Nc3cccc(Cl)c3N3CCN=C23)cc1Cl` [Compound B123, 9-chloro-N-(3-chloro-4-(trifluoromethyl)phenyl)-1,2-dihydroimidazo[1,2-a] quinoxalin-4-amine] belongs 24.3; to `Fc1cc(Cl)cc2c1N1CCN=C1C(Nc1ccc(OC(F)(F)F)cc1)=N2` [Compound B130, 7-chloro-9-fluoro-N-(4-(trifluoromethoxy)phenyl)-1,2-dihydroimidazo[1,2-a] quinoxalin-4-amine], 25.6; to `Fc1cc(NC2=Nc3cc(Cl)cc(F)c3N3CCN=C23)ccc1OC(F)(F)F` [Compound B131, 7-chloro-9-fluoro-N-(3-fluoro-4-(trifluoromethoxy)phenyl)-1,2-dihydroimidazo[1,2-a] quinoxalin-4-amine], 27.
`Fc1cc(Cl)cc2c1N1CCN=C1C(Nc1ccc(OC(F)(F)F)c(Cl)c1)=N2` [Compound B132, 7-chloro-N-(3-chloro-4-(trifluoromethoxy)phenyl)-9-fluoro-1,2-dihydroimidazo[1,2-a] quinoxalin-4-amine]: the fold induction at 0.1 µM in data set [1] worked out at 27.6.
The same measure, in the same setting: to `Fc1cc(Cl)cc2c1N1CCN=C1C(Nc1ccc(C(F)(F)F)cc1)=N2` [Compound B133, 7-chloro-9-fluoro-N-(4-(trifluoromethyl)phenyl)-1,2-dihydroimidazo[1,2-a] quinoxalin-4-amine] belongs 26.3.
The same measure, in the same setting: to `Fc1cc(NC2=Nc3cc(Cl)cc(F)c3N3CCN=C23)ccc1C(F)(F)F` [Compound B134, 7-chloro-9-fluoro-N-(3-fluoro-4-(trifluoromethyl)phenyl)-1,2-dihydroimidazo[1,2-a] quinoxalin-4-amine] belongs 27.5; to `Fc1cc(Cl)cc2c1N1CCN=C1C(Nc1ccc(C(F)(F)F)c(Cl)c1)=N2` [Compound B135, 7-chloro-N-(3-chloro-4-(trifluoromethyl)phenyl)-9-fluoro-1,2-dihydroimidazo[1,2-a] quinoxalin-4-amine], 24.9.
Still for that read-out and setting: the figure for `FC(F)(F)Oc1ccc(NC2=Nc3cc(Cl)cc(Cl)c3N3CCN=C23)cc1` [Compound B136, 7,9-dichloro-N-(4-(trifluoromethoxy)phenyl)-1,2-dihydroimidazo[1,2-a] quinoxalin-4-amine] is 34.1.
On to `Fc1cc(NC2=Nc3cc(Cl)cc(Cl)c3N3CCN=C23)ccc1OC(F)(F)F` [Compound B137, 7,9-dichloro-N-(3-fluoro-4-(trifluoromethoxy)phenyl)-1,2-dihydroimidazo[1,2-a] quinoxalin-4-amine], for which, in data set [1], the fold induction at 0.1 µM was 31.1.
As for `FC(F)(F)Oc1ccc(NC2=Nc3cc(Cl)cc(Cl)c3N3CCN=C23)cc1Cl` [Compound B138, 7,9-dichloro-N-(3-chloro-4-(trifluoromethoxy)phenyl)-1,2-dihydroimidazo[1,2-a] quinoxalin-4-amine], in data set [1], the fold induction at 0.1 µM was 29.9.
Still for that read-out and setting: the figure for `Fc1cc(NC2=Nc3cc(Cl)cc(Cl)c3N3CCN=C23)ccc1C(F)(F)F` [Compound B140, 7,9-dichloro-N-(3-fluoro-4-(trifluoromethyl)phenyl)-1,2-dihydroimidazo[1,2-a] quinoxalin-4-amine] is 38.4; for `FC(F)(F)c1ccc(NC2=Nc3cc(Cl)cc(Cl)c3N3CCN=C23)cc1Cl` [Compound B141, 7,9-dichloro-N-(3-chloro-4-(trifluoromethyl)phenyl)-1,2-dihydroimidazo[1,2-a] quinoxalin-4-amine] it is 36.2.
Same read-out and setting: to `FC(F)(F)Oc1ccc(NC2=Nc3ccc(Cl)cc3N3CCN=C23)cc1` [Compound B142, 8-chloro-N-(4-(trifluoromethoxy)phenyl)-1,2-dihydroimidazo[1,2-a] quinoxalin-4-amine] belongs 25.6.
With `Fc1cc(NC2=Nc3ccc(Cl)cc3N3CCN=C23)ccc1OC(F)(F)F` [Compound B143, 8-chloro-N-(3-fluoro-4-(trifluoromethoxy)phenyl)-1,2-dihydroimidazo[1,2-a] quinoxalin-4-amine], the fold induction at 0.1 µM in data set [1] came to 28.4.
On the same count and under the same terms, to `FC(F)(F)Oc1ccc(NC2=Nc3ccc(Cl)cc3N3CCN=C23)cc1Cl` [Compound B144, 8-chloro-N-(3-chloro-4-(trifluoromethoxy)phenyl)-1,2-dihydroimidazo[1,2-a] quinoxalin-4-amine] belongs 27.8; to `FC(F)(F)c1ccc(NC2=Nc3ccc(Cl)cc3N3CCN=C23)cc1` [Compound B145, 8-chloro-N-(4-(trifluoromethyl)phenyl)-1,2-dihydroimidazo[1,2-a] quinoxalin-4-amine], 30.
For the compound `Fc1cc(NC2=Nc3ccc(Cl)cc3N3CCN=C23)ccc1C(F)(F)F` [Compound B146, 8-chloro-N-(3-Fluoro-4-(trifluoromethyl)phenyl)-1,2-dihydroimidazo[1,2-a] quinoxalin-4-amine], the fold induction at 0.1 µM in data set [1] turned out to be 28.7.
In the case of `FC(F)(F)c1ccc(NC2=Nc3ccc(Cl)cc3N3CCN=C23)cc1Cl` [Compound B147, 8-chloro-N-(3-chloro-4-(trifluoromethyl)phenyl)-1,2-dihydroimidazo[1,2-a] quinoxalin-4-amine], the fold induction at 0.1 µM in data set [1] came to 27.9.
On the same count and under the same terms, to `FC(F)(F)Oc1ccc(NC2=Nc3cc(Cl)ccc3N3CCN=C23)cc1` [Compound B148, 7-chloro-N-(4-(trifluoromethoxy)phenyl)-1,2-dihydroimidazo[1,2-a] quinoxalin-4-amine] belongs 29.4; to `Fc1cc(NC2=Nc3cc(Cl)ccc3N3CCN=C23)ccc1OC(F)(F)F` [Compound B149, 7-chloro-N-(3-fluoro-4-(trifluoromethoxy)phenyl)-1,2-dihydroimidazo[1,2-a] quinoxalin-4-amine], 34.7.
Same read-out and setting: to `FC(F)(F)Oc1ccc(NC2=Nc3cc(Cl)ccc3N3CCN=C23)cc1Cl` [Compound B150, 7-chloro-N-(3-chloro-4-(trifluoromethoxy)phenyl)-1,2-dihydroimidazo[1,2-a] quinoxalin-4-amine] belongs 26.4.

By AUC(0-t) is commonly meant the area under the concentration-time curve up to a stated or last time point. A low value points to less exposure. Usually Cmax stands for the peak of the concentration-time curve. By Tmax is commonly meant the time from dosing to the highest level. By half-life is commonly meant how long it takes for the measured level to halve. Low readings indicate fast loss, high ones slow loss.
